According to patent publication US20050009912A1, “Prodrugs of excitatory amino acids” (priority 2001, published 2005):

melting point | Compound
> 175 °C (dec.) | Cl.N[C@@]1(C(=O)OCc2ccccc2C(F)(F)F)CC[C@H]2[C@H](C(=O)O)[C@H]21
135 to 137 °C | Cl.N[C@@]1(C(=O)OCc2ccc(Cl)cc2Cl)CC[C@H]2[C@H](C(=O)O)[C@H]21 [Example 29, (1S,2S,5R,6S)-2-Amino-bicyclo[3.1.0]hexane-2,6-dicarboxylic acid 2-(2′,4′-dichloro)benzyl ester hydrochloride]
> 220 °C (dec.) | Cl.N[C@@]1(C(=O)OCc2ccccc2F)CC[C@H]2[C@H](C(=O)O)[C@H]21 [Example 31, (1S,2S,5R,6S)-2-Amino-bicyclo[3.1.0]hexane-2,6-dicarboxylic acid 2-(2′-fluoro)benzyl ester hydrochloride]
173 to 175 °C | Cl.N[C@@]1(C(=O)OCc2cc(Cl)ccc2Cl)CC[C@H]2[C@H](C(=O)O)[C@H]21 [Example 33, (1S,2S,5R,6S)-2-Amino-bicyclo[3.1.0]hexane-2,6-dicarboxylic acid 2-(2′,5′-dichloro)benzyl ester hydrochloride]
190 to 191 °C | Cl.N[C@@]1(C(=O)OCc2ccccc2Br)CC[C@H]2[C@H](C(=O)O)[C@H]21 [Example 34, (1S,2S,5R,6S)-2-Amino-bicyclo[3.1.0]hexane-2,6-dicarboxylic acid 2-(2′-bromo)benzyl ester hydrochloride]
98 to 99 °C | Cl.N[C@@]1(C(=O)OCc2cc(F)cc(F)c2)CC[C@H]2[C@H](C(=O)O)[C@H]21 [Example 35, (1S,2S,5R,6S)-2-Amino-bicyclo[3.1.0]hexane-2,6-dicarboxylic acid 2-(31,5′-difluoro)benzyl ester hydrochloride]
70 °C (dec.) | Cc1ccc(C)c(COC(=O)[C@]2(N)CC[C@H]3[C@H](C(=O)O)[C@H]32)c1.Cl [Example 41, (1S,2S,5R,6S)-2-Amino-bicyclo[3.1.0]hexane-2,6-dicarboxylic acid 2-(2′,5′-dimethyl)benzyl ester hydrochloride]
195 °C (dec.) | COc1ccccc1COC(=O)[C@]1(N)CC[C@H]2[C@H](C(=O)O)[C@H]21 [Example 48, (1S,2S, SR, 6S)-2-Amino-bicyclo[3.1.0]hexane-2,6-dicarboxylic acid 2-(2′-methoxy)benzyl ester]
225 °C (dec.) | N[C@@]1(C(=O)OCc2cccc(F)c2)CC[C@H]2[C@H](C(=O)O)[C@H]21 [Example 54, (1S, 2S, SR,6S)-2-Amino-bicyclo[3.1.0]hexane-2,6-dicarboxylic acid 2-(3′-fluoro)benzyl ester]
